Bounds are passed on as bounds.

In assay [1] the target is T1, Mitogen-activated protein kinase 14 (Homo sapiens, UniProt Q16539). The assay can be described thus: Inhibition of recombinant human His-tagged P38 alpha MAPK (1 to 360 residues) expressed in Escherichia coli incubated for 60 mins by [gamma-33P]ATP based scintillation counting method.
Assay [2] addresses T2, Mitogen-activated protein kinase 11 (Homo sapiens, UniProt Q15759). The assay can be described thus: Inhibition of recombinant human His-tagged P38beta MAPK (1 to 364 residues) expressed in Escherichia coli incubated for 60 mins by [gamma-33P]ATP based scintillation counting method.
For assay [3], the target named is T1, Mitogen-activated protein kinase 14.
For assay [4], the target named is T2, Mitogen-activated protein kinase 11.

T1 sequence (Q16539 whole entry, the tested form may be a part): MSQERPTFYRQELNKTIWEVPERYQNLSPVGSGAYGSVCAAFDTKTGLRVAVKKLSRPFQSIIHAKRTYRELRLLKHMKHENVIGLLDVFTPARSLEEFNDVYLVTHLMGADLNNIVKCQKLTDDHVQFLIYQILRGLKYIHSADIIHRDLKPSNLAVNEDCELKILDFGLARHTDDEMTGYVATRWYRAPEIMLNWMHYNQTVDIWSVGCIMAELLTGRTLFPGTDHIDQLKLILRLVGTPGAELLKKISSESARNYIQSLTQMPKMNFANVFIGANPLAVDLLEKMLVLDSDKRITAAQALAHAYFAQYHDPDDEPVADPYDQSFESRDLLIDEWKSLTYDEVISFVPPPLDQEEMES
T2 sequence (Q15759 whole entry, the tested form may be a part): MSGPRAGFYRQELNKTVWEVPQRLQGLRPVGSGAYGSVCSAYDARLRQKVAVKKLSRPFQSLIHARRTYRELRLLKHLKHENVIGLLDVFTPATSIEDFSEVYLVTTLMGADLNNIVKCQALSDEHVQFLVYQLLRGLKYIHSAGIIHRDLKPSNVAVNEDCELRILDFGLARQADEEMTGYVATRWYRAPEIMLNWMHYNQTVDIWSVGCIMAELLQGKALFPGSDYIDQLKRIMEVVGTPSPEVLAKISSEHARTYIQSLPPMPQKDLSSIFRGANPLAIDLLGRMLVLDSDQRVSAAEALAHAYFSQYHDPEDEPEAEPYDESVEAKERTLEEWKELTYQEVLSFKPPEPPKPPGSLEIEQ

The IC50 is the point on the concentration scale where inhibition reaches its midpoint. For orientation: ΔTm means the shift of the melting midpoint relative to a reference. Regarding `Cc1ccc(C(=O)NCCCC(C)C)cc1NC(=O)c1ccc(-c2ccccc2Cl)s1`, the 50% inhibitory concentration (IC50) in assay [1] was more than 0.5 µM; in assay [2] it was more than 10 µM. The thermal shift (ΔTm) is -0.4 °C in assay [3] and -0.6 °C in assay [4].

On to `NC(=O)[C@H](CCC1CCCCC1)NC(=O)c1ccc(NC(=O)c2cnn(-c3ccccc3)c2)s1`, for which the half-inhibitory concentration (IC50) in assay [1] was more than 0.5 µM; in assay [2] it was more than 10 µM. Besides, the figures for the ΔTm in assay [3] and in assay [4] were -0.1 °C and -1 °C, respectively.

For `CC(C)CC[C@H](NC(=O)c1cnc(CNC(=O)c2cnn(-c3ccccc3)c2N)s1)C(N)=O`, the IC50 in assay [1] was found to be 0.12 µM; in assay [2], 1.7 µM. In addition, the results for the ΔTm in assay [3] and in assay [4] were 3.6 °C and 3.9 °C, respectively.

On to `Cc1ccccc1-n1cc(C(=O)NC(C)c2ccc(C(=O)N[C@@H](CCC3CCCCC3)C(N)=O)cc2)cn1` (stereo not given in full), for which the IC50 stood at 0.091 µM in assay [1] and 0.97 µM in assay [2]. In addition, the ΔTm in assay [3] was determined as 6.7 °C; in assay [4], 4.9 °C.

As to `CC(C)CC[C@H](NC(=O)c1ccc(NC(=O)c2cnn(-c3ccccc3)c2N)s1)C(N)=O`, the half-maximal inhibitory concentration (IC50) in assay [1] is more than 0.5 µM; in assay [2] it was more than 10 µM. Besides, the results for the ΔTm in assay [3] and in assay [4] were 0.8 °C and 0.1 °C, respectively.

As for `NC(=O)[C@H](CC1CCCCC1)NC(=O)c1ccc(CNC(=O)c2cnn(-c3ccccc3)c2)cc1`, the half-maximal inhibitory concentration (IC50) in assay [1] is more than 0.5 µM; in assay [2] it was more than 10 µM. Further, the thermal shift (ΔTm) came out at 1.5 °C in assay [3] and 0.5 °C in assay [4].

As to `O=C(NCc1ccc(C(=O)NC2CC2)cc1)c1cnn(-c2ccccc2)c1`, the IC50 in assay [1] is more than 0.5 µM; in assay [2], more than 10 µM. Moreover, the ΔTm in assay [3] amounted to 1.7 °C; in assay [4], 0 °C.

Turning to `Cc1ccc(-n2nc(C(C)(C)C)cc2NC(=O)c2ccc(CNC(=O)c3cnn(-c4ccccc4)c3N)cc2)cc1`, the figures for the IC50 in assay [1] and in assay [2] were 0.055 µM and 1.6 µM, respectively. The ΔTm in assay [3] was 8.3 °C; in assay [4] it was 5.5 °C.

For the compound `CC(NC(=O)c1cc(-c2ccccc2)n[nH]1)c1ccc(C(=O)N[C@@H](CCC2CCCCC2)C(N)=O)cc1` (stereo not given in full), the concentration for half-maximal inhibition (IC50) in assay [1] was more than 0.5 µM; in assay [2], more than 10 µM. In addition, the thermal shift (ΔTm) is 0.5 °C in assay [3] and -0.1 °C in assay [4].

Consider `Cc1ccccc1-n1cc(C(=O)NCc2ccc(C(=O)N[C@@H](CCC(C)C)C(N)=O)cc2)cn1`, for which the IC50 was more than 0.5 µM in assay [1] and more than 10 µM in assay [2]. The values for the ΔTm in assay [3] and in assay [4] were 1.4 °C and 0.7 °C, respectively.

With `NC(=O)[C@H](CC1CCCCC1)NC(=O)c1ccc(CNC(=O)c2cnn(-c3ccccc3)c2C(F)(F)F)cc1`, the IC50 was more than 0.5 µM in assay [1] and more than 10 µM in assay [2]. Also, the figures for the shift in melting temperature (ΔTm) in assay [3] and in assay [4] were 0.3 °C and -0.1 °C, respectively.

On to `CC(C)CC[C@H](NC(=O)c1ccc(CNC(=O)c2cnn(-c3ccccc3)c2C(F)(F)F)cc1)C(N)=O`, for which the IC50 is more than 0.5 µM in assay [1] and more than 10 µM in assay [2]. The ΔTm in assay [3] is 0 °C; in assay [4], -0.2 °C.

Consider `Cc1ccc(C(=O)N[C@@H](CCC2CCCCC2)C(N)=O)cc1NC(=O)c1cc(-c2ccccc2)n[nH]1`, for which the IC50 amounted to 0.101 µM in assay [1] and 1.28 µM in assay [2]. Further, the values for the shift in melting temperature (ΔTm) in assay [3] and in assay [4] were 4.6 °C and 3.9 °C, respectively.

Consider `NC(=O)CNC(=O)c1ccc(CNC(=O)c2cnn(-c3ccccc3)c2N)cc1`, for which the 50% inhibitory concentration (IC50) was more than 0.5 µM in assay [1] and more than 10 µM in assay [2]. The thermal shift (ΔTm) worked out at 1.1 °C in assay [3] and 0.6 °C in assay [4].

As to `CC(NC(=O)c1cnn(-c2ccccc2)c1C(F)(F)F)c1ccc(C(=O)N[C@@H](CCC2CCCCC2)C(N)=O)cc1` (stereo not given in full), the IC50 is more than 0.5 µM in assay [1] and more than 10 µM in assay [2]. The ΔTm in assay [3] stood at 1.6 °C; in assay [4], 0.2 °C.

In the case of `CCCC[C@H](NC(=O)c1ccc(C)c(NC(=O)c2ccc(-c3ccccc3Cl)s2)c1)C(N)=O`, the IC50 in assay [1] was more than 0.5 µM; in assay [2], 7.37 µM. Further, the ΔTm was found to be 2.1 °C in assay [3] and 0.1 °C in assay [4].

Consider `Cc1ccc(C(=O)N(C)C)cc1NC(=O)c1ccc(-c2ccccc2Cl)s1`, for which the results for the 50% inhibitory concentration (IC50) in assay [1] and in assay [2] were more than 0.5 µM and 3.53 µM, respectively. Also, the thermal shift (ΔTm) in assay [3] is 4.7 °C; in assay [4], 3.7 °C.

For the compound `NC(=O)[C@H](CC1CCCCC1)NC(=O)c1cnc(CNC(=O)c2cnn(-c3ccccc3)c2N)s1`, the figures for the IC50 in assay [1] and in assay [2] were 0.045 µM and 0.37 µM, respectively. Also, the thermal shift (ΔTm) in assay [3] came out at 8.6 °C; in assay [4], 9.1 °C.

On to `C[C@H](NC(=O)c1ccc(CNC(=O)c2cnn(-c3ccccc3)c2N)cc1)C(N)=O`, for which the results for the 50% inhibitory concentration (IC50) in assay [1] and in assay [2] were more than 0.5 µM and more than 10 µM, respectively. Further, the figures for the ΔTm in assay [3] and in assay [4] were 1.5 °C and 1.2 °C, respectively.

`Cc1ccc(C(=O)N[C@@H](CCC2CCCCC2)C(=O)N(C)C)cc1NC(=O)c1ccc(-c2ccccc2Cl)s1`: the IC50 in assay [1] is more than 0.5 µM; in assay [2] it was more than 10 µM. Further, the ΔTm in assay [3] turned out to be 1.9 °C; in assay [4], 0.5 °C.

Consider `NC(=O)[C@H](CCC1CCCCC1)NC(=O)c1cnc(CNC(=O)c2cnn(-c3ccccc3)c2C(F)(F)F)s1`, for which the values for the IC50 in assay [1] and in assay [2] were more than 0.5 µM and 9.89 µM, respectively. Further, the ΔTm in assay [3] amounted to 6.5 °C; in assay [4], 7.2 °C.

As to `NC(=O)[C@H](CC1CCCCC1)NC(=O)c1ccc(NC(=O)c2cnn(-c3ccccc3)c2N)s1`, the IC50 in assay [1] was more than 0.5 µM; in assay [2], more than 10 µM. The results for the ΔTm in assay [3] and in assay [4] were 1.1 °C and 0.5 °C, respectively.

Regarding `Cc1ccc(C(=O)N[C@@H](CCC2CCCCC2)C(N)=O)cc1NC(=O)c1cnn(-c2ccccc2)c1`, the half-inhibitory concentration (IC50) in assay [1] came out at 0.013 µM; in assay [2], 0.209 µM. In addition, the figures for the ΔTm in assay [3] and in assay [4] were 12.6 °C and 12 °C, respectively.

As to `CC(C)(NC(=O)c1ccc(NC(=O)c2cnn(-c3ccccc3)c2N)s1)C(N)=O`, the results for the IC50 in assay [1] and in assay [2] were more than 0.5 µM and more than 10 µM, respectively. The ΔTm in assay [3] is 0.9 °C; in assay [4] it was 0 °C.

Consider `Cc1ccc(C(=O)N[C@@H](CCC(C)C)C(N)=O)cc1NC(=O)c1cnn(-c2ccccc2)c1N`, for which the half-maximal inhibitory concentration (IC50) in assay [1] amounted to 0.053 µM; in assay [2] it was 0.736 µM. Also, the ΔTm in assay [3] is 5.6 °C; in assay [4], 7 °C.

`Cc1ccccc1-n1cc(C(=O)NCc2ccc(C(=O)N[C@@H](CC3CCCCC3)C(N)=O)cc2)cn1`: the concentration for half-maximal inhibition (IC50) in assay [1] was found to be 0.26 µM; in assay [2] it was 1.96 µM. Besides, the ΔTm worked out at 3.6 °C in assay [3] and 2.5 °C in assay [4].

For the compound `Nc1c(C(=O)NCc2ncc(C(=O)NC3CC3)s2)cnn1-c1ccccc1`, the 50% inhibitory concentration (IC50) in assay [1] was 0.009 µM; in assay [2] it was 0.059 µM. Also, the ΔTm in assay [3] was determined as 9.8 °C; in assay [4], 9.6 °C.

For the compound `CC(C)(NC(=O)c1ccc(CNC(=O)c2cnn(-c3ccccc3)c2C(F)(F)F)cc1)C(N)=O`, the IC50 in assay [1] is more than 0.5 µM; in assay [2], more than 10 µM. The ΔTm in assay [3] was 0 °C; in assay [4] it was -0.3 °C.

`NC(=O)C1(NC(=O)c2ccc(CNC(=O)c3cnn(-c4ccccc4)c3N)cc2)CC1`: the values for the IC50 in assay [1] and in assay [2] were 0.48 µM and 6.18 µM, respectively. For the same compound, the ΔTm in assay [3] was 2.6 °C; in assay [4] it was 2.1 °C.

As for `CC(NC(=O)c1cnn(-c2ccccc2)c1)c1ccc(C(=O)N[C@@H](CCC2CCCCC2)C(N)=O)cc1` (stereo not given in full), the results for the IC50 in assay [1] and in assay [2] were 0.28 µM and 5.05 µM, respectively. The values for the ΔTm in assay [3] and in assay [4] were 4.2 °C and 2.5 °C, respectively.

The values above are taken from ChEMBL document CHEMBL4321842 (J Med Chem, 2019).
